Test results reported in ChEMBL document CHEMBL1145381, “Synthesis and antiviral property of allophenylnorstatine-based HIV protease inhibitors incorporating D-cysteine derivatives as P2/P3 moieties” (Bioorg Med Chem Lett, 2007).

Columns and labels:
[1] = system: Human immunodeficiency virus 1; test: Antiviral activity against HIV1 3B in MT4 cells by MTT assay; type: functional, organism-based; conditions: Human immunodeficiency virus 1, 3B
[2] = Selectivity index, Ratio of LC50 for MT4 cells to EC50 for HIV1 3B; type: functional
[3] = Cytotoxicity against MT4 cells by MTT assay; type: cell-based; conditions: human, read-out: LC50 (the source's name)
[4] = system: Human immunodeficiency virus; test: Inhibition of HIV protease at 1 nM
[5] = system: Human immunodeficiency virus 1; test: Antiviral activity against nelfinavir-resistant HIV1 NL432; type: functional, organism-based; conditions: Human immunodeficiency virus 1, NL432
[6] = system: Human immunodeficiency virus 1; test: Antiviral activity against ritonavir and nelfinavir-resistant HIV1 NL432; type: functional, organism-based; conditions: Human immunodeficiency virus 1, NL432
[7] = system: Human immunodeficiency virus 1; test: Antiviral activity against ritonavir-resistant HIV1 NL432; type: functional, organism-based; conditions: Human immunodeficiency virus 1, NL432
[8] = system: Human immunodeficiency virus 1; test: Antiviral activity against HIV1 NL432; type: functional, organism-based; conditions: Human immunodeficiency virus 1, NL432
[9] = Inhibition of HIV protease; set-up: species or system Human immunodeficiency virus

Row | SMILES | EC50 [1] [nM] | Selectivity index [2] | CC50 [3] [nM] | inhibition [4] [%] | EC50 [5] [nM] | EC50 [6] [nM] | EC50 [7] [nM] | EC50 [8] [nM] | IC50 [9] [nM]
1 | COc1ccc(CS(=O)(=O)C[C@@H](Nc2c(C)cc(C)cc2C)C(=O)N[C@@H](Cc2ccccc2)[C@H](O)C(=O)N2CSC(C)(C)[C@H]2C(=O)NCc2ccccc2C)cc1 | 203 | >128 | > 26000 | 66 |  |  |  |  | 
2 | CC(=O)NC(CSc1cccc2ccccc12)C(=O)N[C@@H](Cc1ccccc1)[C@H](O)C(=O)N1CSC(C)(C)[C@H]1C(=O)NCc1ccccc1C (stereo partly specified) | 13 | 471 | 8000 | 68 | 6.3 | 52 | 18 | 70 | 
3 | Cc1cc(C)c(NC(CSc2ccc3ccccc3c2)C(=O)N[C@@H](Cc2ccccc2)[C@H](O)C(=O)N2CSC(C)(C)[C@H]2C(=O)NCc2ccccc2C)c(C)c1 (stereo partly specified) | 13 | 469 | 6100 | 67 | 0.8 | 23 | 31 | 17 | 
4 | COc1ccc(CS(=O)(=O)C[C@@H](NC(C)=O)C(=O)N[C@@H](Cc2ccccc2)[C@H](O)C(=O)N2CSC(C)(C)[C@H]2C(=O)NCc2ccccc2C)cc1 | 102 | >265 | > 27000 | 59 |  |  |  |  | 
5 | COc1ccc(CSC[C@@H](NC(C)=O)C(=O)N[C@@H](Cc2ccccc2)[C@H](O)C(=O)N2CSC(C)(C)[C@H]2C(=O)NCc2ccccc2C)cc1 | 13 | 1308 | 17000 | 87 | 2.4 | 14 | 18 | 17 | 0.18
6 | Cc1c(O)cccc1C(=O)N[C@@H](CSc1ccccc1)[C@H](O)CN1C[C@H]2CCCC[C@H]2C[C@H]1C(=O)NC(C)(C)C | 16 | 688 | 11000 | 29 | 308 | 67 | 28 | 25 | 
7 | Cc1cc(C)c(NC(CSc2cccc3ccccc23)C(=O)N[C@@H](Cc2ccccc2)[C@H](O)C(=O)N2CSC(C)(C)[C@H]2C(=O)NCc2ccccc2C)c(C)c1 (stereo partly specified) | 6.4 | 688 | 4400 | 74 | 0.67 | 13 | 17 | 9.3 | 
8 | Cc1ccccc1CNC(=O)[C@H]1N(C(=O)[C@@H](O)[C@H](Cc2ccccc2)NC(=O)C(CS(=O)(=O)c2cccc3ccccc23)NS(C)(=O)=O)CSC1(C)C (stereo partly specified) |  |  |  | 97 |  |  |  |  | 0.083
9 | CC(C)c1nc(CN(C)C(=O)N[C@H](C(=O)N[C@@H](Cc2ccccc2)C[C@H](O)[C@H](Cc2ccccc2)NC(=O)OCc2cncs2)C(C)C)cs1 [RITONAVIR] | 36 |  |  | 90 |  | 162 | 220 | 80 | 
10 | Cc1ccccc1CNC(=O)[C@H]1N(C(=O)[C@@H](O)[C@H](Cc2ccccc2)NC(=O)C(CS(=O)(=O)c2ccc3ccccc3c2)NS(C)(=O)=O)CSC1(C)C (stereo partly specified) |  |  |  | 98 |  |  |  |  | 0.09
11 | CC(=O)NC(CS(=O)(=O)c1cccc2ccccc12)C(=O)N[C@@H](Cc1ccccc1)[C@H](O)C(=O)N1CSC(C)(C)[C@H]1C(=O)NCc1ccccc1C (stereo partly specified) | 40 | 400 | 16000 | 97 |  |  |  |  | 0.09
12 | CC(=O)NC(CSc1ccc2ccccc2c1)C(=O)N[C@@H](Cc1ccccc1)[C@H](O)C(=O)N1CSC(C)(C)[C@H]1C(=O)NCc1ccccc1C (stereo partly specified) | 18 | 461 | 8300 | 53 | 7.2 | 32 | 65 | 17 | 
13 | CSC[C@H](NC(=O)COc1cccc2cnccc12)C(=O)N[C@@H](Cc1ccccc1)[C@H](O)C(=O)N1CSC[C@H]1C(=O)NC(C)(C)C | 22 | >1363 | > 30000 | 40 |  |  |  |  | 
14 | CC(=O)NC(CS(=O)(=O)c1ccc2ccccc2c1)C(=O)N[C@@H](Cc1ccccc1)[C@H](O)C(=O)N1CSC(C)(C)[C@H]1C(=O)NCc1ccccc1C (stereo partly specified) | 28 | 571 | 16000 | 96 |  |  |  |  | 0.086
15 | CC(C)(C)NC(=O)c1ccccc1C[C@H](O)[C@@H](Cc1ccccc1)NC(=O)[C@H](CS(=O)(=O)c1ccc(Cl)cc1)NS(C)(=O)=O |  |  |  |  |  |  |  |  | 0.34
